Reference: patent US20180231524A1, “IN VITRO METHODS OF IDENTIFYING MODULATORS OF NEUROMUSCULAR JUNCTION ACTIVITY” (MEMORIAL SLOAN-KETTERING CANCER CENTER, priority 2015, published 2018)

What was measured:
rodent GSK3β homologs = settings: cited from earlier work
[1] = tested on: myofibers in MN co-cultures with adult muscle (hMA); experiment: myasthenia gravis model: calcium imaging; format: cell-based, human; settings: MG#1 IgG and complement cultures
Procedure: To further characterize the myasthenic phenotype we performed calcium imaging experiments. […] Therefore cultures were pretreated with control and MG#1 IgG and human complement for 2 days. Calcium imaging was performed in regions with similar amounts of muscle fibers and dense innervation (FIG. 4K, L). […] In addition, the percentage of reactive fibers was reduced in cultures treated with MG#1 IgG and complement compared to controls (FIG. 4N, CTRL 78% vs. MG 32%, two-tailed unpaired t test, p<0.001, t=4.79). […] Finally we sought to confirm the complement attack on the neuromuscular junction. For this purpose, cultures treated with MG#1 IgG and human complement as well as cultures treated with CTRL IgG and human complement for 24 h were stained with an antibody recognizing the human complement fragment C3c. […] (FIG. 4O, P).
(§1) Myotubes or co-cultures on glass coverslips were incubated with the ratiometric calcium dye Fura-2 and imaged under continuous perfusion in normal Tyrode's solution. Myotubes were stimulated by acetylcholine. Co-cultures were illuminated for optogenetic stimulation for 10 ms at 470 nm (4 mW/mm2) every 5 s.
Serum (containing complement) from 5 healthy donors was pooled and added to the media where indicated (2% v/v). […]

[2] = tested on: co-cultures of MNs with adult-derived myoblasts (hMA); experiment: myasthenia gravis model: light-induced muscle contraction in co-cultures; format: cell-based, human; settings: PYR 10 μM on day 3; cultures treated with MG IgG (#1 & 2 combined) and complement; n=8
Excerpt: Next we sought to address whether the functional neuromuscular co-cultures were suitable to model a classic human neuromuscular disease. Myasthenia gravis (MG) (Toyka et al., 1977; Verschuuren et al., 2013) is caused by the emergence of autoantibodies against proteins in the neuromuscular junction (e.g. the acetylcholine receptor, AChR). Binding of the pathogenic antibody to AChR activates the complement cascade, resulting in destruction of the neuromuscular endplate (Sahashi et al., 1980), which ultimately causes progressive muscle weakness in patients. We therefore quantified light-induced muscle contractions in functional co-cultures of MNs with adult-derived myoblasts (hMA) before (FIG. 4A, D) and after the incubation with IgG fractions (200 nM total IgG) from two MG patients with clearly elevated AChR antibody titers (#1 and #2). Sandoglobulin (SG) polyvalent IgG served as control. […] Next, we assessed if the myasthenic phenotype was reversible after washout of MG IgG and complement, mimicking plasmapheresis therapy (Gold et al., 2008). […]
Maturing co-cultures were observed under 10× brightfield illumination while intermittently opening the shutter for fluorescent light (470 nm, 2mW/mm^2, approx. 300 ms pulse). […] For the quantification of movement multiple representative high contrast regions were automatically traced (MetaMorph Software). […]

[3] = tested on: light-responsive skeletal myotubes in neuromuscular co-cultures; experiment: sharp electrode recording of light-induced myofiber action potentials; format: cell-based, human; settings: 2 μM; 447 nm optogenetic stimulation 0.2 to 2 Hz
Procedure: (§2) We next characterized key physiologic parameters in the functional neuromuscular cultures. Matured co-cultures were incubated with the calcium dye Fura2 and mounted into an imaging chamber for continuous perfusion. […] The lower panel of FIG. 3J confirms long-term stability of neuro-muscular excitability in a calcium imaging experiment over 45 minutes. In a separate study, skeletal myotubes (n=5), identified by their cylindrical and striated appearance under phase contrast microscopy and by their ability to undergo light-induced twitching were selected for intracellular recordings (FIG. 3K). Light-responsive myotubes were impaled with sharp electrodes and muscle APs were recorded during 447 nm optogenetic stimulation at frequencies from 0.2 to 2 Hz. Spike fidelity was 100% at 0.2 Hz, 93.3±6.7% at 0.5 Hz, 75±15.0% at 1 Hz and 80±10.0% at 2 Hz. […] To address the stability of neuromuscular connectivity over the course of several days and weeks, contractile regions (n=7) were assessed every 5 days.
On matured EYFP+ MNs whole-cell current clamp recordings were performed at room temperature. Light-evoked APs were elicited using a 447 nm diode laser (OEM Laser) with light pulses of 5 ms at approximately 1 mW/mm2. Myotubes contracting in response to light stimulation were impaled with a sharp electrode for intracellular recordings.

[4] = tested on: myofibers in functional neuromuscular co-cultures; experiment: calcium imaging in neuromuscular co-cultures under optogenetic stimulation; format: cell-based, human; settings: 470 nm optogenetic stimulation, Fura2; 6/6 cultures
Procedure: as §2, §1

[5] = tested on: co-cultures of ChR2-expressing hESC-derived spinal motorneurons with human adult (hMA) and fetal (hMF) myofibers; experiment: light-induced muscle twitches in neuromuscular co-cultures; format: cell-based; settings: 2 μM, optogenetic stimulation 470 nm, all tested cultures
Procedure: To establish the neuromuscular co-culture, we used the purified ChR2-expressing spinal motorneurons (day 20-25) and plated them onto pre-differentiated skeletal myofibers (day 5-10). After plating, hESC-derived spinal MN cell bodies mostly remained within the neuronal clusters but extended axons across the adult and fetal muscle (up to 2 mm within the first week, FIG. 3A, E). Co-cultures were tested for the establishment of neuromuscular connectivity in weekly intervals. For this purpose the cultures were observed under bright field illumination and intermittently stimulated with blue light pulses. Six to eight weeks after initiation of the co-culture, the elongated cylindrical myoblast-derived muscle fibers remained morphologically intact and started to contract in response optogenetic stimulation (470 nm, 0.2 Hz, 300 ms pulse width). FIGS. 3B, F show mature co-cultures with both muscle types. FIG. 3C, G show the quantification of muscle twitches of individual fibers from such cultures. The lower panels show long term experiments over 8.5 min (FIG. 3C at 0.2 Hz, FIG. 3G at 0.1 Hz). […]
Maturing co-cultures were observed under 10× brightfield illumination while intermittently opening the shutter for fluorescent light (470 nm, 2mW/mm^2, approx. 300 ms pulse). […] For the quantification of movement multiple representative high contrast regions were automatically traced (MetaMorph Software).

Cc1c[nH]c(-c2cnc(NCCNc3ccc(C#N)cn3)nc2-c2ccc(Cl)cc2Cl)n1 [CHIR99021, 6-(2-(4-(2,4-dichlorophenyl)-5-(4-methyl-1H-imidazol-2-yl)pyrimidin-2-ylamino)ethylamino)nicotinonitrile]
IC50 values against rodent GSK3β homologs (rodent GSK3β homologs): nanomolar

CN(C)C(=O)Oc1ccc[n+](C)c1 [pyridostigmine]
percentage of reactive fibers after PYR in MG cultures [1]: tendency towards a higher percentage of reactive fibers, which did not reach significance
light-induced calcium spike after PYR in MG cultures ([1]; n=8): small but significant increase
change of movement after pyridostigmine in MG cultures [2]: +22%

CC(=O)O[C@H]1C[C@@H]2CC[C@@H]3[C@H](CC[C@@]4(C)[C@H]3C[C@H]([N+]3(C)CCCCC3)[C@@H]4OC(C)=O)[C@@]2(C)C[C@@H]1N1CCCCC1 [vecuronium]
light-induced APs in myofibers [3]: completely blocked light-induced APs in myofibers in a reversible manner
light-evoked calcium spikes in myofibers [4]: could be blocked
light induced muscle twitches [5]: completely blocked
light induced muscle twitches ([5]; listed as Vecuronium): blocks light-evoked contractility
